ChEMBL document CHEMBL3885861, “Open TG-GATES”

Species on record: Rattus norvegicus
Test: Open TG-GATES - Regimen: Daily Repeat
Format: toxicity, organism-based, Sprague-Dawley
Set-up: regimen Daily Repeat, gender Male, age 6 weeks
Details: in vivo, po, 2 mg/kg, route gavage, dose level Low; for APTT / Bas / Eos / Fbg / Hb / Ht / Lym / MCH / MCHC / MCV / Mono / Neu / PT / Plat / RBC / Ret / WBC: tissue Blood; for KIDNEY_L / KIDNEY_R / KIDNEY_TOTAL: tissue Kidney; for LIVER: tissue Liver; for ALP / ALT / AST / BUN / CRE / Ca / Cl / DBIL / GLC / IP / K / LDH / Na / PL / RALB / TBIL / TC / TG / TP / gamma-GTP: tissue Plasma

Question: Which results are given for `O=P1(N(CCCl)CCCl)NCCCO1` (stereo not drawn) [CYCLOPHOSPHAMIDE ANHYDROUS]?
Answer: TERMINAL_BW (72 h, time 3 day): 217.7 g; APTT (72 h, time 3 day): 20.8 s; Bas (72 h, time 3 day): 0%; Eos (72 h, time 3 day): 1%; Fbg (72 h, time 3 day): 299.8 mg/dL; Hb (72 h, time 3 day): 13.3 g/dL; Ht (72 h, time 3 day): 40.1%; Lym (72 h, time 3 day): 79.8%; MCH (72 h, time 3 day): 21.3 pg; MCHC (72 h, time 3 day): 33.1%; MCV (72 h, time 3 day): 64.3 fL; Mono (72 h, time 3 day): 3%; Neu (72 h, time 3 day): 15%; PT (72 h, time 3 day): 16.5 s; Plat (72 h, time 3 day): 126.5 x10_4/uL; RBC (72 h, time 3 day): 624.6 x10_4/ul; Ret (72 h, time 3 day): 6.5%; WBC (72 h, time 3 day): 74.5 x10_2/uL; KIDNEY_L (72 h, time 3 day): 1 g; KIDNEY_R (72 h, time 3 day): 1 g; KIDNEY_TOTAL (72 h, time 3 day): 1.9 g; LIVER (72 h, time 3 day): 10.2 g; ALP (72 h, time 3 day): 1778.2 IU/L; ALT (72 h, time 3 day): 40.2 IU/L; AST (72 h, time 3 day): 67 IU/L; BUN (72 h, time 3 day): 17.8 mg/dL; CRE (72 h, time 3 day): 0.2 mg/dL; Ca (72 h, time 3 day): 10.8 mg/dL; Cl (72 h, time 3 day): 106 meq/L; DBIL (72 h, time 3 day): 0 mg/dL; GLC (72 h, time 3 day): 187.4 mg/dL; IP (72 h, time 3 day): 7.1 mg/dL; K (72 h, time 3 day): 4.1 meq/L; LDH (72 h, time 3 day): 164.8 IU/L; Na (72 h, time 3 day): 141.8 meq/L; PL (72 h, time 3 day): 160.8 mg/dL; RALB (72 h, time 3 day): 3.1 g/dL; TBIL (72 h, time 3 day): 0.012 mg/dL; TC (72 h, time 3 day): 78.2 mg/dL; TG (72 h, time 3 day): 121.6 mg/dL; TP (72 h, time 3 day): 5.6 g/dL; gamma-GTP (72 h, time 3 day): 1.2 IU/L; TERMINAL_BW ([…], time 7 day): 254.7 g; TERMINAL_BW ([…], time 14 day): 305.2 g; TERMINAL_BW ([…], time 28 day): 367.9 g; APTT ([…], time 7 day): 22.6 s; Bas ([…], time 7 day): 0%; Eos ([…], time 7 day): 0.6%; Fbg ([…], time 7 day): 282.6 mg/dL; Hb ([…], time 7 day): 13.3 g/dL; Ht ([…], time 7 day): 40.1%; Lym ([…], time 7 day): 80.8%; MCH ([…], time 7 day): 21.7 pg; MCHC ([…], time 7 day): 33.2%; MCV ([…], time 7 day): 65.3 fL; Mono ([…], time 7 day): 2.4%; Neu ([…], time 7 day): 15.4%; PT ([…], time 7 day): 16.8 s; Plat ([…], time 7 day): 130 x10_4/uL; RBC ([…], time 7 day): 613.8 x10_4/ul; Ret ([…], time 7 day): 5.8%; WBC ([…], time 7 day): 88.7 x10_2/uL; APTT ([…], time 14 day): 22.2 s; Bas ([…], time 14 day): 0%; Eos ([…], time 14 day): 0.8%; Fbg ([…], time 14 day): 315 mg/dL; Hb ([…], time 14 day): 13.9 g/dL; Ht ([…], time 14 day): 41%; Lym ([…], time 14 day): 82.6%; MCH ([…], time 14 day): 20.2 pg; MCHC ([…], time 14 day): 33.9%; MCV ([…], time 14 day): 59.7 fL; Mono ([…], time 14 day): 2.4%; Neu ([…], time 14 day): 13.2%; PT ([…], time 14 day): 14.8 s; Plat ([…], time 14 day): 121.1 x10_4/uL; RBC ([…], time 14 day): 687.8 x10_4/ul; Ret ([…], time 14 day): 4.7%; WBC ([…], time 14 day): 88.9 x10_2/uL; APTT ([…], time 28 day): 23.3 s; Bas ([…], time 28 day): 0%; Eos ([…], time 28 day): 1%; Fbg ([…], time 28 day): 302.6 mg/dL; Hb ([…], time 28 day): 14.7 g/dL; Ht ([…], time 28 day): 42.7%; Lym ([…], time 28 day): 78.4%; MCH ([…], time 28 day): 19.4 pg; MCHC ([…], time 28 day): 34.5%; MCV ([…], time 28 day): 56.1 fL; Mono ([…], time 28 day): 2.2%; Neu ([…], time 28 day): 17.2%; PT ([…], time 28 day): 16.4 s; Plat ([…], time 28 day): 98.2 x10_4/uL; RBC ([…], time 28 day): 761.2 x10_4/ul; Ret ([…], time 28 day): 2.6%; WBC ([…], time 28 day): 84.8 x10_2/uL; KIDNEY_L ([…], time 7 day): 1.1 g; KIDNEY_R ([…], time 7 day): 1.1 g; KIDNEY_TOTAL ([…], time 7 day): 2.3 g; KIDNEY_L ([…], time 14 day): 1.2 g; KIDNEY_R ([…], time 14 day): 1.2 g; KIDNEY_TOTAL ([…], time 14 day): 2.5 g; KIDNEY_L ([…], time 28 day): 1.3 g; KIDNEY_R ([…], time 28 day): 1.3 g; KIDNEY_TOTAL ([…], time 28 day): 2.6 g; LIVER ([…], time 7 day): 12 g; LIVER ([…], time 14 day): 13.3 g; LIVER ([…], time 28 day): 14.1 g; ALP ([…], time 7 day): 1581 IU/L; ALT ([…], time 7 day): 41.4 IU/L; AST ([…], time 7 day): 69.4 IU/L; BUN ([…], time 7 day): 16.6 mg/dL; CRE ([…], time 7 day): 0.2 mg/dL; Ca ([…], time 7 day): 10.9 mg/dL; Cl ([…], time 7 day): 105 meq/L; DBIL ([…], time 7 day): 0 mg/dL; GLC ([…], time 7 day): 184.6 mg/dL; IP ([…], time 7 day): 7.7 mg/dL; K ([…], time 7 day): 4.2 meq/L; LDH ([…], time 7 day): 193.6 IU/L; Na ([…], time 7 day): 143.2 meq/L; PL ([…], time 7 day): 158.2 mg/dL; RALB ([…], time 7 day): 3 g/dL; TBIL ([…], time 7 day): 0.02 mg/dL; TC ([…], time 7 day): 76.8 mg/dL; TG ([…], time 7 day): 137.2 mg/dL; TP ([…], time 7 day): 5.5 g/dL; gamma-GTP ([…], time 7 day): 3.6 IU/L; ALP ([…], time 14 day): 1389 IU/L; ALT ([…], time 14 day): 34.4 IU/L; AST ([…], time 14 day): 60.6 IU/L; BUN ([…], time 14 day): 18.2 mg/dL; CRE ([…], time 14 day): 0.2 mg/dL; Ca ([…], time 14 day): 10.7 mg/dL; Cl ([…], time 14 day): 107.2 meq/L; DBIL ([…], time 14 day): 0.002 mg/dL; GLC ([…], time 14 day): 174.4 mg/dL; IP ([…], time 14 day): 6.5 mg/dL; K ([…], time 14 day): 4.2 meq/L; LDH ([…], time 14 day): 141.4 IU/L; Na ([…], time 14 day): 142.8 meq/L; PL ([…], time 14 day): 150.4 mg/dL; RALB ([…], time 14 day): 3.1 g/dL; TBIL ([…], time 14 day): 0.022 mg/dL; TC ([…], time 14 day): 71.4 mg/dL; TG ([…], time 14 day): 145.6 mg/dL; TP ([…], time 14 day): 5.7 g/dL; gamma-GTP ([…], time 14 day): 2 IU/L; ALP ([…], time 28 day): 1055.8 IU/L; ALT ([…], time 28 day): 34.8 IU/L; AST ([…], time 28 day): 61.4 IU/L; BUN ([…], time 28 day): 18.2 mg/dL; CRE ([…], time 28 day): 0.2 mg/dL; Ca ([…], time 28 day): 10.3 mg/dL; Cl ([…], time 28 day): 105.8 meq/L; DBIL ([…], time 28 day): 0 mg/dL; GLC ([…], time 28 day): 175.2 mg/dL; IP ([…], time 28 day): 6.6 mg/dL; K ([…], time 28 day): 4 meq/L; LDH ([…], time 28 day): 131.6 IU/L; Na ([…], time 28 day): 144.2 meq/L; PL ([…], time 28 day): 141.8 mg/dL; RALB ([…], time 28 day): 3.1 g/dL; TBIL ([…], time 28 day): 0.02 mg/dL; TC ([…], time 28 day): 72.6 mg/dL; TG ([…], time 28 day): 138.4 mg/dL; TP ([…], time 28 day): 6.2 g/dL; gamma-GTP ([…], time 28 day): 1 IU/L
